Earlier results as cited in US20200129524A1, “PERSONALIZED CONTRACEPTIVE FORMULATIONS” (Agile Therapeutics, Inc., priority 2017, published 2020).

Biological target: T1, SHBG (Homo sapiens, UniProt P04278)
T1 sequence (P04278 30-402): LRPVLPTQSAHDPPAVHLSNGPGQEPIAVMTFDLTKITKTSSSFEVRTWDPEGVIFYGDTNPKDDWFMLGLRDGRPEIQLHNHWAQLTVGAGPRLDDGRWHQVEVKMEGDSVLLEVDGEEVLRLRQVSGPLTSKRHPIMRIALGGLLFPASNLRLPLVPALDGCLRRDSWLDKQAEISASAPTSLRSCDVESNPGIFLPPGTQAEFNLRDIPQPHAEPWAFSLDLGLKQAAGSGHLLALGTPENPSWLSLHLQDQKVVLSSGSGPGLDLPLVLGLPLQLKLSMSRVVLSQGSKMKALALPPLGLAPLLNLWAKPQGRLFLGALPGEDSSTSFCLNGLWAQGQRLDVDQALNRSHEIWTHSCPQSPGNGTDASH
Conditions: testosterone being 100; cited from earlier work

## C[C@]12CC[C@H]3[C@@H](CCC4=CC(=O)CC[C@@]43C)[C@@H]1CC[C@@H]2O [testosterone]
  relative binding affinity to SHBG: 100%
